US20170303574A1, “COMPOUNDS, COMPOSITIONS, AND METHODS FOR MODULATING SWEET TASTE” (Chromocell Corporation, priority 2014, published 2017)
Marks after values point to notes of the source that are not given here.

Legend:
Type in all cases: in vivo, humans
[1] = test system: perception of sweet taste of high fructose cornsyrup (HFCS); assay: 2AFC assessment of increase in perceived sweetness of HFCS solution; settings: for Compound concentration with positive 2AFC results: in 5brix HFCS test sample; for Fold increase in perceived sweetness: positive control concentration surpassed divided by test sample concentration (5brix HFCS), approximate; for Sweetener Concentration of positive control surpassed by test sample: test sample 5brix HFCS plus compound, 2AFC sip and spit, panelists n≧15
Description: Effect of test compounds on the perception of sweet taste of high fructose cornsyrup (HFCS) two-alternative forced choice method (2AFC). The effect of the test compounds on the perception of the sweet taste of an aqueous solution of sweetener in humans was evaluated using a two-alternative forced choice “sip and spit” method (2AFC). The aqueous sweetener solutions were prepared by adding sucrose equivalent (SE) quantities of high fructose corn syrup (HFCS) (by weight), to water to achieve the desired concentration. The aqueous solutions ranged in pH from pH 2.5-pH 7. Compounds of the invention were first prepared as a 500-fold concentrated stock solution in 100% ethanol. These concentrated stocks were then added to the aqueous sweetener solutions to result in a final ethanol concentration of 0.2%. The control (positive and negative) samples were also normalized to 0.2% ethanol. This level of ethanol was not seen to contribute any perceived sweetness. The 2AFC test used for compound evaluation was a double blinded and randomized test where taste panelists (n≧15) evaluate a pair of sweetener solutions at a time—one sample contains aqueous sweetener solution plus compound (i.e. test) while the other contains aqueous sweetener solution at higher concentration without compound (i.e. positive control). Each test sample was compared against a positive control. For example, if the test sample contained 1× sweetener concentration with compound (e.g. 5brix HFCS with compound), the positive control sample contained a 1.1× sweetener concentration (e.g. 5.5brix HFCS without compound). […] Panelists were instructed not to eat or drink (except water) for at least 1 hour before the test. During the test, panelists were instructed to sip each sample, swirl it around their mouth and then expectorate. After tasting each sample in the pair, panelists were instructed to record the sample that is “sweeter” in taste. Panelists cleansed their palates by rinsing with water, eating a cracker and waiting for an interval of about 5 minutes. All samples were tasted at ambient temperatures. Data were analyzed using binomial probabilities. Approximate levels of sweetness enhancement in column 5 of Table 2 were calculated as follows: Approximate levels of sweetness enhancement=Sweetener concentration of positive control surpassed by the test sample, divided by sweetener concentration for compound-containing sample (e.g.1.3×=6.5brix HFCS/5brix HFCS).

[2] = test system: perception of the sweet taste in a flavored aqueous environment; assay: Descriptive analysis (DA) panel: sweetness enhancement in HFCS sweetened lemon lime matrix; settings: for Fold enhancement of sweetness perception as compared to control sample: vs negative control; for Perceived sweetness (spider plot, vs control sweetener solution): lemon-lime matrix sweetened with HFCS, pH 7
Description: The effect of the test compound on the perception of the sweet taste in a flavored aqueous environment, in the presence of carbohydrate sweeteners, was evaluated using a descriptive analysis methodology with a group of trained panelists, as follows.
The panel used in this example was trained to reference sweet attributes in an absolute manner, such that a particular concentration of sweetener is always measured by the panelists at the same point using a 15 cm line scale where each cm represents a 1% increase in sucrose to cover the range of 0% to 15% sucrose. For the rest of the attributes, the panel was trained using a hybrid approach between descriptive analysis methods well-known to those skilled in the art.
The trained panel was then used for a descriptive analysis assessment for Compound 2 and Compound 5 in flavored lemon lime matrix. Compound 2 was assessed at a dose of 50 ppm and Compound 5 was assessed at a dose of 20 ppm for sweetness enhancement in high fructose corn syrup (HFCS) sweetened lemon lime matrix.
The flavored sweetener solutions were prepared by adding sucrose equivalent quantities of HFCS (by weight), to lemon lime matrix to achieve the desired concentration. Compound was first prepared as a 500-fold concentrated stock solution in 100% ethanol. The concentrated stocks were then added to the flavored sweetener solutions to result in a final ethanol concentration of 0.2%. The control (positive and negative) samples were also normalized to 0.2% ethanol. This level of ethanol was not seen to contribute any perceived sweetness
(§1) Both control (flavored sweetener solutions without compound) and variant (flavored sweetener solutions with compound) samples were blinded and randomized. Samples were presented in monadic order and panelists were instructed to sip the sample, swirl it in their mouths and expectorate. A total of 7 attributes including sweet, bitter, sour, licorice and thickness were assessed for each sample. For the sweet attribute, panelists made an absolute scoring on a 15 cm line scale where each cm represents a 1% increase in sucrose to cover the range of 0% to 15% sucrose. After each sample assessment, panelists performed a standard palate cleansing protocol, and observed an inter-sample interval time (ISI). All samples were evaluated at ambient temperatures.
Data was collected and exported electronically utilizing FIZZ sensory software. Data analysis was conducted using SENPAQ version 5.0 software that uses tools such as ANOVA, Fisher's LSD, correlation to determine panel performance as well as significant differences between samples and attributes.
The letter “a” indicates significant differences among the samples at 95% confidence level. Fold enhancement (increase in perceived sweetness) was calculated by dividing the DA panel average intensity score observed for a variant sample by that observed for the negative control sample.

[3] = test system: perception of non-sweet taste attributes (such as bitterness); assay: Descriptive analysis (DA) panel: non-sweet taste attributes in lemon lime matrix (spider plots); settings: lemon-lime matrix sweetened with HFCS, pH 7
Description: The effect of the test compound on the perception of non-sweet taste attributes (such as bitterness) in a flavored aqueous environment, in the presence of carbohydrate sweeteners, was evaluated using a descriptive analysis methodology with a group of trained panelists, as follows. This occurred as part of DA assessment described previously in Example 3.
The trained panel was then used for a descriptive analysis assessment for Compound 2 and Compound 5 in lemon lime flavored matrix, sweetened with high fructose corn syrup (HFCS), at a test dose of 50 ppm and 20 ppm, respectively.
as §1, with “All control and variant samples were prepared as described in Example 3. Both” for “Both”, “sample.” for “sample. For the sweet attribute, panelists made an absolute scoring on a 15 cm line scale where each cm represents a 1% increase in sucrose to cover the range of 0% to 15% sucrose.”
Data was collected and exported electronically utilizing FIZZ sensory software. […]

[4] = Compound 5 @ 20 ppm in 6.67brix HFCS lemon lime matrix
[5] = Compound 2 @ 50 ppm in 7.7brix HFCS lemon lime matrix

Which “Compound concentration with positive 2AFC results” value [1] does the source give for COc1ccc(C2CCc3ccc(O)c(C)c3O2)cc1O (racemic) [Compound 1, 2-(3-hydroxy-4-methoxyphenyl)-8-methylchroman-7-ol] here?
Its value is 35 ppm.

What about the “Fold increase in perceived sweetness” value [1] of the same compound?
The value was over 1.2X.

And the “Sweetener Concentration of positive control surpassed by test sample” value [1]?
Its value is 6brix HFCS.

Which “Compound concentration with positive 2AFC results” value [1] does the source give for COc1ccc(C2CCc3cc(C)c(O)cc3O2)cc1O (single isomer, unassigned; (-)) [Compound 5, (−)-2-(3-hydroxy-4-methoxyphenyl)-6-methylchroman-7-ol] here?
The value was 20 ppm.

What about the “Fold increase in perceived sweetness” value [1] of the same compound?
Its value is over 1.5X.

What about the “Sweetener Concentration of positive control surpassed by test sample” value [1] of the same compound?
The value was 7.5brix HFCS.

What about the “Average Sweetness Intensity Score w/ ANOVA (on 15 cm scale)” value [2, 4] of the same compound?
Its value is 9.7^a.

What about the “Fold enhancement of sweetness perception as compared to control sample” value [2, 4] of the same compound?
The value was 1.47X.

What about the “Perceived sweetness (spider plot, vs control sweetener solution)” value [2] of the same compound?
The value was “significant increase in perceived sweetness”.

What about the “Other attributes including astringent, licorice and bitter (spider plot, vs control)” value [3] of the same compound?
The value was “observed to be significant”.

What does the source list for COc1ccc(C2CCc3cc(C)c(O)cc3O2)cc1O (racemic) [Compound 4, 2-(3-hydroxy-4-methoxyphenyl)-6-methylchroman-7-ol]?
Compound concentration with positive 2AFC results [1]: 20 ppm; Fold increase in perceived sweetness [1]: >1.3X; Sweetener Concentration of positive control surpassed by test sample [1]: 6.5brix HFCS

What does the source list for COc1ccc([C@@H]2CCc3ccc(O)c(C)c3O2)cc1O [Compound 2, (S)-2-(3-hydroxy-4-methoxyphenyl)-8-methylchroman-7-ol]?
Compound concentration with positive 2AFC results [1]: 50 ppm; Fold increase in perceived sweetness [1]: >1.3X; Sweetener Concentration of positive control surpassed by test sample [1]: 6.5brix HFCS; Average Sweetness Intensity Score w/ ANOVA (on 15 cm scale) [2, 5]: 10.3^a; Fold enhancement of sweetness perception as compared to control sample [2, 5]: 1.43X; Perceived sweetness (spider plot, vs control sweetener solution) [2]: significant increase in perceived sweetness; Other attributes including astringent, licorice and bitter (spider plot, vs control) [3]: observed to be significant
